According to patent US20240207427A1, “SELECTIVE DRUG RELEASE FROM INTERNALIZED CONJUGATES OF BIOLOGICALLY ACTIVE COMPOUNDS” (priority 2021, published 2024):
Read-outs that look alike come from different tables or passages of the source.

Tests used:
Type in all cases: cell-based
[1] = test system: anaplastic large cell lymphoma cells (DELBVR); test: In vitro potency (CellTiter-Glo, 96 h), DELBVR
Outline: (§1)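 IC50 (ng/mL or nmol/L) derived from CellTiter-Glo luminescence after 96 h exposure at 37 °C to serial dilutions of ADC or CPT free drug. Log-phase cells had been plated 24 h beforehand in RPMI 1640 containing 20% FBS.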

[2] = test system: acute myeloid leukemia cells (MOLM-13); test: In vitro potency (CellTiter-Glo, 96 h), MOLM-13; conditions: Homo sapiens, MOLM-13, 96 h, CPT free drugs
Outline: as §1

[3] = test system: non-small-cell lung cancer cells (Calu1); test: In vitro potency (CellTiter-Glo, 96 h), Calu1; conditions: Homo sapiens, Calu-1, 96 h
Method: (§2) In vitro potency was assessed on multiple cancer cell lines. All cell lines were authenticated by STR profiling at IDEXX Bioresearch and cultured for no more than 2 months after resuscitation. Cells cultured in log-phase growth were seeded for 24 hours in 96-well plates containing […] RPMI 1640 supplemented with 20% FBS. Serial dilutions of antibody-drug conjugates in cell culture media were prepared at 4× working concentrations, and 50 μL of each dilution was added to the 96-well plates. Following addition of test articles, cells were incubated with test articles for 4 days at 37 0° C. After 96 hours, growth inhibition was assessed by CellTiterGlo® (Promega, Madison, WI) and luminescence was measured on a plate reader.
In Table 7, IC50 values for ADCs are given in ng/mL. Cell viability was determined by CellTiter-Glo staining after 96 h exposure to ADC. ND=Not Determined. Ag2 is an antibody targeting a ubiquitous and readily internalizable antigen. The cancer cell lines tested are renal carcinoma cells (786-0), melanoma cells (A2058), pancreatic cancer cells (BxPC3), non-small-cell lung cancer cells (Calu1), anaplastic large cell lymphoma cells (DEL, DELBVR, Karpas299), Hodgkin's lymphoma cells (L540cy), (Ls174T), breast cancer cells (MDA-MB-231), acute myeloid leukemia cells (MOLM-13), and B-lymphocyte cancer cells (SU-DHL4).
In vitro potency was assessed on multiple cancer cell lines. All cell lines were authenticated by STR profiling at IDEXX Bioresearch and cultured for no more than 2 months after resuscitation. Cells cultured in log-phase growth were seeded for 24 hours in 96-well plates containing […] RPMI 1640 supplemented with 20% FBS. Following addition of test articles, cells were incubated with test articles for 4 days at 37 0° C. After 96 hours, growth inhibition was assessed by CellTiterGlo® (Promega, Madison, WI) and luminescence was measured on a plate reader.
Cell viability was determined by CellTiter-Glo staining after 96 h exposure to the compound. ND=Not Determined. The cancer cell lines tested are renal carcinoma cells (786-0), melanoma cells (A2058), pancreatic cancer cells (BxPC3), non-small-cell lung cancer cells (Calu1), anaplastic large cell lymphoma cells (DEL, DELBVR, Karpas299), Hodgkin's lymphoma cells (L540cy), (Ls 174T), breast cancer cells (MDA-MB-231), acute myeloid leukemia cells (MOLM-13), B-lymphocyte cancer cells (SU-DHL4), multiple myeloma cells (MM.1R), (U266), and melanoma cells (SK-MEL-5).
as §2, with “37°” for “37 0°”
In the following Tables IC50 values for ADCs and CPT free drugs are given in ng/mL and nmol/L concentrations. Cell viability was determined by CellTiter-Glo staining after 96 h exposure to ADC or CPT free drug.
Cell viability was determined by CellTiter-Glo staining after 96 h exposure to ADC. ND=Not Determined.

melanoma cells (A2058) = test: In vitro potency (CellTiter-Glo, 96 h), A2058; conditions: Homo sapiens, A2058, 96 h, CPT free drugs
Outline: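 Antibody-drug conjugates, prepared as dilution series in culture medium, were added to cells seeded a day earlier in RPMI 1640 supplemented with 20% FBS. After four days at 37 °C, luminescence measured growth inhibition.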

[4] = test system: anaplastic large cell lymphoma cells (DEL); test: In vitro potency (CellTiter-Glo, 96 h), DEL
Outline: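 Log-phase cells were seeded for 24 h in RPMI 1640 with 20% FBS, then exposed to serially diluted antibody-drug conjugates or free camptothecin drug for 4 days at 37 °C. Growth inhibition was read by luminescence, and IC50 values were reported in ng/mL and nmol/L.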

[5] = test system: breast cancer cells (MDA-MB-231); test: In vitro potency (CellTiter-Glo, 96 h), MDA-MB-231; conditions: Homo sapiens, MDA-MB-231, 96 h, CPT free drugs
Outline: as §1

[6] = test system: pancreatic cancer cells (BxPC3); test: In vitro potency (CellTiter-Glo, 96 h), BxPC3; conditions: Homo sapiens, BXPC-3, 96 h, CPT free drugs
Outline: as §1

[7] = test system: renal carcinoma cells (786-O); test: In vitro potency (CellTiter-Glo, 96 h), 786-O; conditions: Homo sapiens, 786-0, 96 h, CPT free drugs
Outline: as §1

[8] = test system: anaplastic large cell lymphoma cells (Karpas299); test: In vitro potency (CellTiter-Glo, 96 h), Karpas299; conditions: Homo sapiens, KARPAS-299, 96 h, CPT free drugs
Outline: as §1

[9] = test system: B-lymphocyte cancer cells (SU-DHL4); test: In vitro potency (CellTiter-Glo, 96 h), SU-DHL-4; conditions: Homo sapiens, SU-DHL-4, 96 h, CPT free drugs
Outline: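 Growth inhibition after 96 h at 37 °C with test article, measured by luminescence; cells in RPMI 1640, 20% FBS.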

[10] = test system: Hodgkin's lymphoma cells (L540cy); test: In vitro potency (CellTiter-Glo, 96 h), L540cy
Outline: as §1

Ls174T cells = test: In vitro potency (CellTiter-Glo, 96 h), Ls174T; conditions: Homo sapiens, CPT free drugs
Outline: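 Cells in log-phase growth are plated in RPMI 1640/20% FBS for 24 h. Serially diluted conjugates are then added, and plates are kept at 37 °C for 4 days before ATP-based luminescence gives growth inhibition.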

[11] = CPT free drugs, Table 24, CellTiter-Glo after 96 h exposure, read-out: IC50 (nmol/L) DELBVR
[12] = Table 24, CellTiter-Glo after 96 h exposure, read-out: IC50 (nmol/L) MOLM-13
[13] = CPT free drugs, Table 24, CellTiter-Glo after 96 h exposure, read-out: IC50 (nmol/L) Calu1
[14] = Table 24, CellTiter-Glo after 96 h exposure, read-out: IC50 (nmol/L) A2058
[15] = CPT free drugs, Table 24, CellTiter-Glo after 96 h exposure, read-out: IC50 (nmol/L) DEL
[16] = Table 24, CellTiter-Glo after 96 h exposure, read-out: IC50 (nmol/L) MDAMB231
[17] = Table 24, CellTiter-Glo after 96 h exposure, read-out: IC50 (nmol/L) BxPC3
[18] = Table 24, CellTiter-Glo after 96 h exposure, read-out: IC50 (nmol/L) 786-O
[19] = Table 24, CellTiter-Glo after 96 h exposure, read-out: IC50 (nmol/L) Karpas299
[20] = Table 24, CellTiter-Glo after 96 h exposure, read-out: IC50 (nmol/L) SU-DHL-4
[21] = CPT free drugs, Table 24, CellTiter-Glo after 96 h exposure, read-out: IC50 (nmol/L) L540cy
[22] = LS174T, Table 24, CellTiter-Glo after 96 h exposure, read-out: IC50 (nmol/L) Ls174T

SMILES	IC50 [1, 11] [nmol/L]	IC50 [2, 12] [nmol/L]	IC50 [3, 13] [nmol/L]	IC50 (melanoma cells (A2058); [14]) [nmol/L]	IC50 [4, 15] [nmol/L]	IC50 [5, 16] [nmol/L]	IC50 [6, 17] [nmol/L]	IC50 [7, 18] [nmol/L]	IC50 [8, 19] [nmol/L]	IC50 [9, 20] [nmol/L]	IC50 [10, 21] [nmol/L]	IC50 (Ls174T cells; [22]) [nmol/L]	also measured
CC[C@@]1(O)C(=O)OCc2c1cc1n(c2=O)Cc2c-1nc1ccc(SC(F)(F)F)cc1c2CN [Compound 2r]	8.4	23	168	11	4.4	19	75	21	37	16	15	15.6	–
CC[C@@]1(O)C(=O)OCc2c1cc1n(c2=O)Cc2c-1nc1cc(F)c(OC)c(F)c1c2CN [Compound 2x]	5	19	27	5	4	91	34	18	11	7	6	16	–
CC[C@@]1(O)C(=O)OCc2c1cc1n(c2=O)Cc2c-1nc1ccc(F)cc1c2CN [Compound 2b]	5.7	19	76	8	4	17	58	27	18	13	6	14	–
CC[C@@]1(O)C(=O)OCc2c1cc1n(c2=O)Cc2c-1nc1cc3c(cc1c2CN)CCC3 [Compound 2v]	14	350	247	19	9	34	165	33	37	33.8	19	17	–
CC[C@@]1(O)C(=O)OCc2c1cc1n(c2=O)Cc2c-1nc1cc(F)ccc1c2CN [Compound 2f]	1.2	11	40	2	1	4	9	6	6	4	3	3.9	–
CC[C@@]1(O)C(=O)OCc2c1cc1n(c2=O)Cc2c-1nc1ccc3c(c1c2CN)CCC3 [Compound 2u]	2	48.3	61	4	2	6	23	10	7	4	5	5.3	–
CC[C@@]1(O)C(=O)OCc2c1cc1n(c2=O)Cc2c-1nc1cc(F)c(C)c(-c3ccc(CO)s3)c1c2CN [Compound 6e]	–	–	–	–	–	–	–	–	–	–	–	–	IC50 ([1]; Table 28, CPT free drugs, anaplastic large cell lymphoma cells DELBVR, CellTiter-Glo, read-out: DELBVR IC50): 4 nmol/L; IC50 ([2]; Table 28, acute myeloid leukemia cells MOLM-13, 96 h, CellTiter-Glo, read-out: MOLM-13 IC50): 17 nmol/L; IC50 ([3]; read-out: Calu1 IC50): 155 nmol/L; IC50 (melanoma cells (A2058); Table 28, melanoma cells A2058, 96 h, CellTiter-Glo, read-out: A2058 IC50): 11 nmol/L; IC50 ([4]; Table 28, CPT free drugs, anaplastic large cell lymphoma cells DEL, CellTiter-Glo, read-out: DEL IC50): 4 nmol/L; IC50 ([5]; Table 28, breast cancer cells MDA-MB-231, 96 h, CellTiter-Glo, read-out: MDAMB231 IC50): 57 nmol/L; IC50 ([6]; Table 28, pancreatic cancer cells BxPC3, 96 h, CellTiter-Glo, read-out: BxPC3 IC50): 65 nmol/L; IC50 ([7]; Table 28, renal carcinoma cells 786-O, 96 h, CellTiter-Glo, read-out: 786-O IC50): 29 nmol/L; IC50 ([8]; Table 28, anaplastic large cell lymphoma cells Karpas299, 96 h, CellTiter-Glo, read-out: Karpas299 IC50): 31 nmol/L; IC50 ([9]; Table 28, B-lymphocyte cancer cells SU-DHL4, 96 h, CellTiter-Glo, read-out: SU-DHL-4 IC50): 7 nmol/L; IC50 ([10]; Table 28, CPT free drugs, Hodgkin's lymphoma cells L540cy, CellTiter-Glo, read-out: L540cy IC50): 18 nmol/L; IC50 (Ls174T cells; Table 28, Ls174T cells, 96 h, CellTiter-Glo, read-out: Ls174T IC50): 17 nmol/L
